# Test results from patent US12498375B2, “Water-soluble compound for detection of beta-amyloid” (KOREA ATOMIC ENERGY RESEARCH INSTITUTE, priority 2020, dated 2025).
# Assays:
# [1] = target: T1, beta-amyloid (Aβ42 aggregate) (Homo sapiens, UniProt P05067); experiment: Evaluation of activity (fluorescence) before and after binding to beta-amyloid; details: for Change in fluorescence intensity after binding to beta-amyloid: before vs after binding to Aβ42 aggregate; for Faβ/F0 (fluorescence reactivity to the Aβ peptide): before vs after binding to Aβ peptide
# T1 construct: 10 μM of Ab42 fibrils
# Description: Regarding each of the Compound 1, Compound 2, Compound 4, and Compound 5 synthesized above, the activity before and after binding to beta-amyloid was evaluated, and the results thereof are shown in FIG. 3. […] Moreover, the absorption wavelengths of each of the Compound 1, Compound 2, Compound 4, and Compound 5 before and after binding to beta-amyloid are shown in Table 2 below. […] In particular, regarding the fluorescence reactivity to the Aβ peptide, the Faβ/F0 values of the Compounds 1, 2, 4, and 5 were 4.3, 11.6, 3.1, and 9.6, respectively, indicating high fluorescence properties (see Table 2 below). Furthermore, from FIG. 3, it was confirmed that there was a clear difference in the emission wavelength before and after the compound according to the present invention bound to the amyloid plaque.
# Ab42 fibrils = target: T2, Ab42 fibrils (Homo sapiens, UniProt P05067); experiment: Measurement of maximum excitation and emission wavelengths (SpectraMax M2); type: physicochemical; details: 10 μM Ab42 fibrils, 5 μM compound, PBS buffer
# T2 construct: 10 μM of Ab42 fibrils
# Description: The maximum excitation and emission wavelengths λmax of the Compounds 1, 2, 4, and 5 according to the present invention were measured by SpectraMax M2 (molecular devices). 10 μM of Ab42 fibrils and 5 μM of each compound, produced by the aforementioned method, as final concentrations were used in a PBS buffer solution. In general, the excitation λmax is determined by scanning the fixed first emission, and the emission λmax is determined by scanning the excitation spectrum with the fixed λmax. The absorbance of each of the Compound 1, Compound 2, Compound 4, and Compound 5 synthesized above was measured, and the results thereof are shown in FIG. 2.
# [2] = Retina-targeting experiment in laboratory mouse (IVIS spectrum CT imaging); type: in vivo; details: 8 mg/kg tail vein, 3-month-old nude mouse
# Description: A water-soluble Compound 1 (8 mg/kg) was injected into the tail vein of a 3-month-old nude mouse, and imaging was carried out with an IVIS spectrum CT system device, and the results thereof are shown in FIG. 4.
# T2 sequence (P05067 672-713 limits assumed): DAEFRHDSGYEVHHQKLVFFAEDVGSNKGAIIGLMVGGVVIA
# T1 sequence (P05067 672-713 limits assumed): as above
SMILES,Change in fluorescence intensity after binding to beta-amyloid [1] [fold],Faβ/F0 (fluorescence reactivity to the Aβ peptide) [1],λem (Ab42 fibrils) [nm],λex (Ab42 fibrils) [nm],fluorescence signal in the eye of mouse ([2]; 1 minute after intravenous injection),fluorescence signal in the eye of mouse ([2]; 10 minutes after intravenous injection)
"CC1(C)C(/C=C/c2ccc(N3CCNCC3)cc2)=[N+](CCCCS(=O)(=O)[O-])c2ccc3ccccc3c21 [Compound 4, (E)-4-(1,1-dimethyl-2-(4-(piperazin-1-yl)styryl)-1H-benzo[e]indol-3-ium-3-yl)butane-1-sulfonate]",3.1,3.1,620,570,–,–
CN(C)c1ccc(/C=C/C2=[N+](CCCCS(=O)(=O)[O-])c3ccc4ccccc4c3C2(C)C)cc1 [Compound 1],4.3,4.3,620,560,strong fluorescence signal,weak fluorescence signal
"CN(C)c1ccc(-c2ccc(/C=C/C3=[N+](CCCCS(=O)(=O)[O-])c4ccc5ccccc5c4C3(C)C)s2)cc1 [Compound 2, (E)-4-(2-(2-(5-(4-(dimethylamino)phenyl)thiophen-2-yl)vinyl)-1,1-dimethyl-1H-benzo[e]indol-3-ium-3-yl)butane-1-sulfonate]",11.6,11.6,765,805,–,–
"CNc1ccc(-c2ccc(/C=C/C3=[N+](CCCCS(=O)(=O)[O-])c4ccc5ccccc5c4C3(C)C)s2)cc1 [Compound 5, (E)-4-(1,1-dimethyl-2-(2-(5-(4-(methylamino)phenyl)thiophen-2-yl)vinyl)-1H-benzo[e]indol-3-ium-3-yl)butane-1-sulfonate]",9.6,9.6,760,575,–,–
